The text below walks through data of US12221453B2, “Substituted pyrazolo[5′,1′:2,3]pyrimido[5,4-b][1,4]oxazines as TYK2 inhibitors” (TAKEDA PHARMACEUTICAL COMPANY LIMITED, priority 2018, dated 2025).

Each structure is given as a SMILES string.

Test [1] deals with IL-12 induced STAT4 phosphorylation mediated by TYK2/JAK2. Kind of test: IL-12 induced pSTAT4 in human PBMC. Type of test: cell-based. Particulars: 1 hr compound, 1.7 ng/mL IL-12 for 30 minutes. In a few lines:
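Thawed human PBMC were pre-incubated with compound for 1 hr at 37 °C (0.1% DMSO), then stimulated with 1.7 ng/mL IL-12 for 30 minutes. Phospho-STAT4 and total STAT4 were measured in cell lysates by MSD.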

The next test has as its target JAK2 (Invitrogen) kinase (Homo sapiens (Human), UniProt O60674). Briefly: JAK2 radioactive kinase assay. Type of test: biochemical. Conditions: compound at 10 μM; ATP at 10 μM; substrate poly[Glu:Tyr] (4:1). As for the experimental part:
Peptide substrate, [[…]], (20 μM) was prepared in reaction buffer (20 mM Hepes pH 7.5, 10 mM MgCl2, 1 mM EGTA, 0.02% Brij35, 0.02 mg/mL BSA, 0.1 mM […], 2 mM DTT, 1% DMSO. TYK2 (Invitrogen) kinase was added, followed by compounds in DMSO. 33PATP was added to initiate the reaction in ATP at 10 μM. Kinase reaction was incubated for 120 min at room temp and reactions were spotted onto P^81 ion exchange paper (Whatman #3698-915), and then washed extensively in 0.75% phosphoric acid, prior to reading the radioactivity counts. For JAK2 (Invitrogen) kinase assay the peptide substrate poly[Glu:Tyr] (4:1), 0.2 mg/mL was used, in the reaction carried out the same as for TYK2.

Test [2] addresses human TYK2 (JH2domain-pseudokinase) (Homo sapiens (Human), UniProt P29597). Briefly: TYK2 JH2 domain binding assay (KINOMEscan, DiscoveRx). Particulars: 11-point 3-fold dilution, top concentration 30,000 nM, duplicate; read-out: hTYK2_JH2_Binding (Kd; nM). How it is done:
From these HEK 293 cells, extracts were prepared in M-PER extraction buffer (Pierce) in the presence of Protease Inhibitor Cocktail Complete (Roche) and Phosphatase Inhibitor Cocktail Set II (Merck) per manufacturers' instructions. The TYK2 (JH2domain-pseudokinase) fusion protein was labeled with a chimeric double-stranded DNA tag containing the NFkB binding site (5′-[…]-3′) fused to an amplicon for qPCR readout, which was added directly to the expression extract (the final concentration of DNA-tag in the binding reaction is 0.1 nM).
The liganded beads were blocked with excess biotin and washed with blocking buffer (SeaBlock (Pierce), 1% BSA, 0.05% Tween 20, 1 mM DTT) to remove unbound ligand and to reduce nonspecific binding.
Extracts were loaded with DNA-tag and diluted into the binding reaction in a two step process. First extracts were diluted 1:100 in 1× binding buffer (PBS/0.05% Tween 20/10 mM DTT/0.1% BSA/2 μg/ml sonicated salmon sperm DNA) containing 10 nM DNA-tag. […] Kds were determined using an 11-point 3-fold compound dilution series with three DMSO control points. […]
Kds were determined using an 11-point 3-fold compound dilution series with three DMSO control points. […] The Kds were determined using a compound top concentration of 30,000 nM. […]
Binding constants (Kds) were calculated with a standard dose-response curve using the Hill equation: […]

Chain of JAK2 (Invitrogen) kinase (O60674 whole entry): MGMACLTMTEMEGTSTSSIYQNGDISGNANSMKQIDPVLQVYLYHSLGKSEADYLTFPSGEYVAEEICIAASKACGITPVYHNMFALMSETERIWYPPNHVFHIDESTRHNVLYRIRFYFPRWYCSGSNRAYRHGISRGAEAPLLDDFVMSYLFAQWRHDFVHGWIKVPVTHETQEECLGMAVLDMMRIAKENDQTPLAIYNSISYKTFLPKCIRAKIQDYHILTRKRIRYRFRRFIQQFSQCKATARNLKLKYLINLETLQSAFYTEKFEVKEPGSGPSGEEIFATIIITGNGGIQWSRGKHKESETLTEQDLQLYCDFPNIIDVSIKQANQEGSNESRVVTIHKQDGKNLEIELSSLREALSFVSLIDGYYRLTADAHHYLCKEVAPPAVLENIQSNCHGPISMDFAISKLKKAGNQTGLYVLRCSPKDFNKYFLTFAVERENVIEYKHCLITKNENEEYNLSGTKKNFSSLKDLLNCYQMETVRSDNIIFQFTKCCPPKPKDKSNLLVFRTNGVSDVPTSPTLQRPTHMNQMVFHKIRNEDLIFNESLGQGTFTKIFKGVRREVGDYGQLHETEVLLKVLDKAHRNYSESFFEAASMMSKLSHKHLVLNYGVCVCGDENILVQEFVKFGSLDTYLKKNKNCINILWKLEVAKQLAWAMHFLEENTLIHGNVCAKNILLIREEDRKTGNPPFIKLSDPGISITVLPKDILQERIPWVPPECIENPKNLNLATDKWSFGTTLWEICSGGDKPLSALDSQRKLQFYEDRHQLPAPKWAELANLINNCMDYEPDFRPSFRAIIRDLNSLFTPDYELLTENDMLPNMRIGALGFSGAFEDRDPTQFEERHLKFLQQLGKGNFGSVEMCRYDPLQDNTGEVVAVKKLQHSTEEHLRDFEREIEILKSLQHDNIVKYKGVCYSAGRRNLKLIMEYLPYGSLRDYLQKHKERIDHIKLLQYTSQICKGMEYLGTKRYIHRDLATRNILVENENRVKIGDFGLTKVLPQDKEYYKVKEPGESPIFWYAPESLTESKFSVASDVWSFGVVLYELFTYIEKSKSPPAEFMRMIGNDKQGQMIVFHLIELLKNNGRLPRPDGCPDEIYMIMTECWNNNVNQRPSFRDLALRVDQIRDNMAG
Chain of human TYK2 (JH2domain-pseudokinase) (P29597 556-888): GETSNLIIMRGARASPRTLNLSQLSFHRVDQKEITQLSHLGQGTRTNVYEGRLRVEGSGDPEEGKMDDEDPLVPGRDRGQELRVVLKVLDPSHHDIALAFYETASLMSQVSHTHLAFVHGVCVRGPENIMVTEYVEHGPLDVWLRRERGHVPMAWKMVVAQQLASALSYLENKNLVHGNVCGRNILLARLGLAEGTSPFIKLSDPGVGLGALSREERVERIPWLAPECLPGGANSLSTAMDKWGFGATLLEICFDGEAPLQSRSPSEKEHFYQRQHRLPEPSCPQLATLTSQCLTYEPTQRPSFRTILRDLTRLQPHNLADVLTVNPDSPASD

On to `CNc1cc(-c2cnc3n(CC(C)(C)O)cccc2-3)nc2c(C(=O)N[C@H]3CC[C@@H]3OC)cnn12` [Compound I-983], for which the IC50 in test [1] is below 0.1 µM. Still for that read-out and setting: the same measure for `CNc1cc(-c2cnc3n(CCCN4CCOCC4)cccc2-3)nc2c(C(=O)N[C@H]3CC[C@@H]3OC)cnn12` [Compound I-990]: below 0.1 µM.

As for `CNc1cc(-c2cn(C(C)C)c3nnccc23)nc2c(C(=O)NC3CC[C@@H]3OC)cnn12` (some centres unmarked) [Compound I-993], in test [1], the IC50 was below 0.1 µM. Same read-out and setting: the same measure for `CNc1cc(-c2cnc3n([C@@H]4CCOC4)cccc2-3)nc2c(C(=O)NC3CC[C@@H]3OC)cnn12` (some centres unmarked) [Compound I-995]: below 0.1 µM; for `CNc1cc(-c2cnc3n([C@H]4CCOC4)cccc2-3)nc2c(C(=O)N[C@H]3CC[C@@H]3OC)cnn12` [Compound I-1002]: below 0.1 µM. Same read-out and setting: the same measure for `CNc1cc(-c2cnc3n([C@@H]4CCOC4)cccc2-3)nc2c(C(=O)N[C@H]3CC[C@@H]3OC)cnn12` [Compound I-1004]: below 0.1 µM; for `CO[C@H]1CC[C@@H]1NC(=O)c1cnn2c(N)cc(-c3cnc4n([C@H]5COC[C@@H]5OC)cccc3-4)nc12` [Compound I-1006]: below 0.1 µM. On the same count and under the same terms, the same measure for `CNc1cc(-c2cn(C(C)C)c3nnccc23)nc2c(C(=O)N[C@@H]3CC[C@H]3OC)cnn12` [Compound I-1009]: below 0.1 µM; for `CNc1cc(-c2cnc3n(CC(=O)N4CC5(COC5)C4)cccc2-3)nc2c(C(=O)N[C@H]3CC[C@@H]3OC)cnn12` [Compound I-1012]: above 1 µM; for `CNc1cc(-c2cnc3n(C4CCOCC4)cccc2-3)nc2c(C(=O)N[C@H]3CC[C@@H]3OC)cnn12` [Compound I-1014]: below 0.1 µM. In test [1], `CNc1cc(-c2cn([C@H]3CC(=O)N(C)C3)c3ncccc23)nc2c(C(=O)N[C@H]3CC[C@@H]3OC)cnn12` [Compound I-1024] had an IC50 below 0.1 µM. On the same count and under the same terms, the same measure for `CNc1cc(Nc2cccn([C@H]3C[C@H](F)C3)c2=O)nc2c(C(=O)N[C@H]3CC[C@H]3O)cnn12` [I-16, 5-((1-((1r,3S)-3-Fluorocyclobutyl)-2-oxo-1,2-dihydropyridin-3-yl)amino)-N-((1S,2R)-2-hydroxycyclobutyl)-7-(methylamino)pyrazolo[1,5-a]pyrimidine-3-carboxamide]: below 0.1 µM; for `CNc1cc(Nc2cccn([C@H]3[C@@H]4COC[C@@H]43)c2=O)nc2c(C(=O)N[C@@H]3C[C@H]3OC)cnn12` [I-25, 5-((1-((1R,5S,6r)-3-Oxabicyclo[3.1.0]hexan-6-yl)-2-oxo-1,2-dihydropyridin-3-yl)amino)-N-((1R,2R)-2-methoxycyclopropyl)-7-(methylamino)pyrazolo[1,5-a]pyrimidine-3-carboxamide]: below 0.1 µM; for `CNc1cc(Nc2cccn([C@H]3CC[C@H](OC)CC3)c2=O)nc2c(C(=O)N[C@@H]3C[C@H]3OC)cnn12` [I-31, 5-((1-((1r,4R)-4-Methoxycyclohexyl)-2-oxo-1,2-dihydropyridin-3-yl)amino)-N-((1R,2R)-2-methoxycyclopropyl)-7-(methylamino)pyrazolo[1,5-a]pyrimidine-3-carboxamide]: below 0.1 µM. The same measure, in the same setting: the same measure for `CNc1cc(Nc2cccn([C@H]3CC[C@H](OC)CC3)c2=O)nc2c(C(=O)N[C@H]3C[C@@H]3OC)cnn12` [I-32, 5-((1-((1r,4S)-4-Methoxycyclohexyl)-2-oxo-1,2-dihydropyridin-3-yl)amino)-N-((1S,2S)-2-methoxycyclopropyl)-7-(methylamino)pyrazolo[1,5-a]pyrimidine-3-carboxamide]: below 0.1 µM; for `CNc1cc(Nc2cccn([C@@H]3C[C@H]3F)c2=O)nc2c(C(=O)N[C@@H]3CC[C@H]3OC)cnn12` [I-53, 5-((1-((1R,2R)-2-Fluorocyclopropyl)-2-oxo-1,2-dihydropyridin-3-yl)amino)-N-((1R,2R)-2-methoxycyclobutyl)-7-(methylamino)pyrazolo[1,5-a]pyrimidine-3-carboxamide]: below 0.1 µM.

In turn, `CNc1cc(Nc2cccn([C@H]3C[C@H](F)C3)c2=O)nc2c(C(=O)N[C@@H]3CC[C@H]3OC)cnn12` [I-57, 5-((1-((1r,3R)-3-Fluorocyclobutyl)-2-oxo-1,2-dihydropyridin-3-yl)amino)-N-((1R,2R)-2-methoxycyclobutyl)-7-(methylamino)pyrazolo[1,5-a]pyrimidine-3-carboxamide] registered an IC50 in test [1] below 0.1 µM.

As for `CNc1cc(Nc2cccn([C@H]3CC[C@H](OC)CC3)c2=O)nc2c(C(=O)N[C@@H]3CC[C@@H](OC)C3)cnn12` [I-69, 5-((1-((1r,4R)-4-Methoxycyclohexyl)-2-oxo-1,2-dihydropyridin-3-yl)amino)-N-((1R,3R)-3-methoxycyclopentyl)-7-(methylamino)pyrazolo[1,5-a]pyrimidine-3-carboxamide], the “JAK2 (% Inhibition at 10 μM)” value at JAK2 (Invitrogen) kinase was “A (had a percent inhibition at 10 μM lower than 50)”. On the same count and under the same terms, the same measure for `CNc1cc(Nc2cccn([C@H]3CC[C@H](OC)CC3)c2=O)nc2c(C(=O)N[C@H]3CC[C@H](OC)C3)cnn12` [I-70, 5-((1-((1r,4S)-4-Methoxycyclohexyl)-2-oxo-1,2-dihydropyridin-3-yl)amino)-N-((1S,3S)-3-methoxycyclopentyl)-7-(methylamino)pyrazolo[1,5-a]pyrimidine-3-carboxamide]: “A (had a percent inhibition at 10 μM lower than 50)”. `CNc1cc(-c2cn([C@H]3C[C@@H](O)C3)c3ncccc23)nc2c(C(=O)NC3CC[C@H]3O)cnn12` (stereo partly drawn) [I-111, N-((cis-1,2)-2-Hydroxycyclobutyl)-5-(1-((1s,3R)-3-hydroxycyclobutyl)-1H-pyrrolo[2,3-b]pyridin-3-yl)-7-(methylamino)pyrazolo[1,5-a]pyrimidine-3-carboxamide]: in test [1], the IC50 was 0.1 to 0.5 µM. Still for that read-out and setting: with `CNc1cc(-c2cn([C@H]3[C@@H]4COC[C@@H]43)c3ncccc23)nc2c(C(=O)N[C@H]3CC[C@@H]3OC)cnn12` [I-793, 5-(1-((1R,5S,6r)-3-oxabicyclo[3.1.0]hexan-6-yl)-1H-pyrrolo[2,3-b]pyridin-3-yl)-N-((1S,2S)-2-methoxycyclobutyl)-7-(methylamino)pyrazolo[1,5-a]pyrimidine-3-carboxamide] the figure was below 0.1 µM.

Turning to `CNc1cc(-c2cn([C@H]3CO[C@@H](COC)C3)c3ncccc23)nc2c(C(=O)N[C@H]3CC[C@@H]3OC)cnn12` [I-1018, N-((1S,2S)-2-methoxycyclobutyl)-5-(1-(5-(methoxymethyl)tetrahydrofuran-3-yl)-1H-pyrrolo[2,3-b]pyridin-3-yl)-7-(methylamino)pyrazolo[1,5-a]pyrimidine-3-carboxamide], the IC50 in test [1] was below 0.1 µM. In test [2], the Kd was below 0.2 nM.

As usually defined, the IC50 is the concentration that gives 50% inhibition. Higher therefore signals weaker potency. For orientation: Kd means the free concentration of one partner at which half of the binding sites on the other are occupied at equilibrium, for simple one-to-one binding.
